In paper PMC4449299 (Developmental cell, 2015) one finds Kd and dH data, which are given here for 2 molecules.

Assay [1] concerns the target T1, AHD (anillin-homology domain of anillin, 712-981) (Homo sapiens, UniProt Q9NQW6).
T1 sequence (Q9NQW6 712-981): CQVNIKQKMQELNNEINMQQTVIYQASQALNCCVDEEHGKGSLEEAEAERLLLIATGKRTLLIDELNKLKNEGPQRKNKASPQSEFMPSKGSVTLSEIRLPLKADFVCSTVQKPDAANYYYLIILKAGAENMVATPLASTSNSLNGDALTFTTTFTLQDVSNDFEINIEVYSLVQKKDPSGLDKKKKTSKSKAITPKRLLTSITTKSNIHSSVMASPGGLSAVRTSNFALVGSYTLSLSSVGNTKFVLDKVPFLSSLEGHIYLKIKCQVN
Description: SPR, L1 chip, liposomes. It counts as binding. As to conditions: PI(4,5)P2 vesicles; room temperature.

The target in assay [2] is AHD-PH + RhoA* (Homo sapiens, UniProt Q9NQW6). Description: SPR, L1 chip, liposomes. It counts as binding. As to conditions: PI(4,5)P2 vesicles; with lipid-modified RhoA; room temperature. A general note: SPR reads the build-up and loss of mass on a sensor chip optically.
Assay [3] addresses T2, Mid1 (C-terminal domain, 579-920) (Schizosaccharomyces pombe, UniProt P78953).
T2 sequence (P78953 579-920): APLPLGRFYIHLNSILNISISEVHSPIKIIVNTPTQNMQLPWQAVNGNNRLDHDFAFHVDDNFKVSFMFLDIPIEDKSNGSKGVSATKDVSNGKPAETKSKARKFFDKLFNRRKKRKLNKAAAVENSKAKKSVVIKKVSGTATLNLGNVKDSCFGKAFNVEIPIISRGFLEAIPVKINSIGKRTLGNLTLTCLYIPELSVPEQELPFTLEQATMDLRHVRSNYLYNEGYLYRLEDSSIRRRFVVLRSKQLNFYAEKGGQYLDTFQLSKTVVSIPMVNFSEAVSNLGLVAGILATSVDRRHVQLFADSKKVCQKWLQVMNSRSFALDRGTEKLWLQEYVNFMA
Description: SPR, L1 chip, liposomes. The format is binding. As to conditions: PI(4,5)P2 vesicles; dimeric Mid1; given as 'up to'; room temperature.

Assay [4] concerns the target RhoA(181)-Q63L (UniProt P61586 1-181, Q63L). The assay can be described thus: ITC. In general terms: ITC needs no label: the signal is the heat of the interaction.

RhoA(181)-Q63L, sequence (P61586 1-181 Q63L): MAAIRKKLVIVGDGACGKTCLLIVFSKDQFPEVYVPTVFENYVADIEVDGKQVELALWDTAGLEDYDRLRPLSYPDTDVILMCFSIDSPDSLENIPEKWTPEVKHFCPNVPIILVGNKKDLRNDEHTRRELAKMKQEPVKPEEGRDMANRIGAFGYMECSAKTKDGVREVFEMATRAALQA
AHD-PH + RhoA*, sequence (Q9NQW6 712-1124): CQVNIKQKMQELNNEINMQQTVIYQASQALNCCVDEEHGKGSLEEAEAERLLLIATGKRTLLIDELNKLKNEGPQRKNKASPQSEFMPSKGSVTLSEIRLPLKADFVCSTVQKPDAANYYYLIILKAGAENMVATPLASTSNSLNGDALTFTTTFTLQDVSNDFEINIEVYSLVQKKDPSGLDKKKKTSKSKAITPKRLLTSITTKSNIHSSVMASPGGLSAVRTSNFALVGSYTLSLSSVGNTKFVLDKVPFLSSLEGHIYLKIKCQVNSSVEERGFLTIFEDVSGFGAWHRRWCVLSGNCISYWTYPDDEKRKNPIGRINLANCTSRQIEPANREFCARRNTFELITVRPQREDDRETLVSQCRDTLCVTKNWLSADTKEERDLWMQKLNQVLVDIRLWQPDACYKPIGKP
AHD-PH + RhoA*, sequence (P61586 1-190 partner): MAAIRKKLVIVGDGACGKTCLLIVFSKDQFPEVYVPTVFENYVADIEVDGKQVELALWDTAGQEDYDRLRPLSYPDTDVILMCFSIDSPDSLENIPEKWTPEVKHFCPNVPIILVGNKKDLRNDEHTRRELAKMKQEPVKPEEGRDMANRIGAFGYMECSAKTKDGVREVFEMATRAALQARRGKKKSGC

A word on the Kd: it is a measure of binding affinity in units of concentration. As for PI(4,5)P2, the dissociation constant (Kd) in assay [1] was roughly 14000 nM; in assay [2], roughly 280 nM; in assay [3] it was 120 nM.

B1: anillin-homology domain (AHD) of human anillin (712–981) (domain or fragment, UniProt Q9NQW6 712-981, looked up)
chain: T1 sequence (Q9NQW6 712-981)
Molecule B1 had a dH in assay [4] of 3.97 kcal/mol.
